The text below walks through data of ChEMBL document CHEMBL1201862, “PubChem BioAssay data set” (2004).

Among the test systems are UO-31; MCF7; SW-620; IGROV-1; M14; RXF 393; SK-OV-3; A498; TK-10; DU-145; MDA-N; HOP-62; OVCAR-8; NCI-H226; HCT-15; A549; HOP-92; CAKI-1; CCRF-CEM; Hs-578T.
What all share (assay): growth of human tumour cells (NCI), 48 h

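Assay format: 96-well plates, 48-hour exposure. At the GI50, growth is halved.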 Calls of active or inactive are those of the source. Cut-off read from the data, not from the text of the source: active = GI50 up to about 1.1 µM and inactive = higher.

Consider `CC1=CC(=O)/C(=C/NC(=S)Nc2ccc(S(N)(=O)=O)cc2)C(=O)O1`, for which the GI50 with UO-31 is > 100 µM (inactive); with MCF7, > 100 µM (inactive); with SW-620, > 100 µM (inactive); in the assay with IGROV-1, > 100 µM (inactive); in the assay with M14 it was > 100 µM (inactive); with RXF 393, 83.6 µM (inactive). The GI50 in the assay on SK-OV-3, in the assay on A498, in the assay with TK-10, in the assay on DU-145, in the assay with MDA-N and in the assay with HOP-62 was > 100 µM (inactive) throughout. Further, the GI50 in the assay with OVCAR-8 was > 100 µM (inactive); in the assay with NCI-H226 it was > 100 µM (inactive); with HCT-15, more than 100 µM; in the assay on A549, > 100 µM (inactive); in the assay on HOP-92, > 100 µM (inactive); with CAKI-1 it was > 100 µM (inactive).

Regarding `O=C(CCCCCCCCC(=O)NN1C(=O)/C(=C\c2ccc(O)c(O)c2)SC1c1c(O)ccc2ccccc12)NN1C(=O)C(=Cc2ccc(O)c(O)c2)SC1c1c(O)ccc2ccccc12` (configuration not stated), the GI50 was 3.39 µM (inactive) with UO-31; 10.1 µM (inactive) in the assay with MCF7; 7.64 µM (inactive) with SW-620; 8.51 µM (inactive) in the assay with IGROV-1; 5.02 µM (inactive) in the assay with M14; 10 µM (inactive) in the assay on RXF 393. Also, the GI50 in the assay with SK-OV-3 is 6.28 µM (inactive); in the assay with A498 it was 22.8 µM (inactive); in the assay with TK-10, > 50.7 µM (inactive); with CCRF-CEM, 0.828 µM (active); in the assay on DU-145 it was 8.28 µM (inactive); with MDA-N, > 41.7 µM (inactive). The GI50 in the assay on HOP-62 is 2.45 µM (inactive); in the assay on OVCAR-8 it was 4.49 µM (inactive); in the assay with NCI-H226, 6.08 µM (inactive); in the assay on HCT-15, 4.66 µM; with A549, 6.95 µM (inactive); with HOP-92 it was 8.47 µM (inactive). Further, in the assay with CAKI-1, the GI50 is 6.01 µM (inactive).

Take `Cc1ccc(-c2c(C#N)c(-c3ccc(Cl)cc3)c(C#N)c(=O)n2NS(=O)(=O)c2ccc(C)cc2)cc1`: the GI50 in the assay with MCF7 is 15.2 µM (inactive); in the assay with SW-620, 35.8 µM (inactive); with IGROV-1, 29.2 µM (inactive); in the assay on M14, 19.5 µM (inactive); in the assay on RXF 393, 21 µM (inactive); in the assay on SK-OV-3, 22.1 µM (inactive). Besides, the GI50 in the assay on A498 was 35 µM (inactive); with TK-10 it was 56.1 µM (inactive); in the assay with CCRF-CEM it was 20.7 µM (inactive); in the assay with MDA-N, 43.8 µM (inactive); in the assay with HOP-62, 19.5 µM (inactive); in the assay with OVCAR-8, 26.2 µM (inactive). The GI50 with NCI-H226 is 39.8 µM (inactive); with HCT-15, 28.2 µM; in the assay with A549, 26.4 µM (inactive); with HOP-92 it was 19.5 µM (inactive); with CAKI-1, 34.1 µM (inactive).

For the compound `CC1CC(Nc2ccc(Br)cc2)N(C(=O)c2ccc(Br)cc2)O1` (configuration not stated), the GI50 in the assay with UO-31 is 2.34 µM (inactive); in the assay on MCF7 it was 5.81 µM (inactive); in the assay with SW-620, 1.31 µM (inactive); in the assay on IGROV-1, 9.73 µM (inactive); with M14, > 10 µM (inactive); with RXF 393, > 10 µM (inactive). Moreover, the GI50 in the assay on SK-OV-3 is > 10 µM (inactive); with TK-10 it was > 10 µM (inactive); in the assay with CCRF-CEM it was 2.51 µM (inactive); with Hs-578T it was 8.3 µM (inactive); in the assay on DU-145, 2.62 µM (inactive); in the assay with MDA-N, 8.93 µM (inactive). The GI50 in the assay with HOP-62 is 6.49 µM (inactive); with OVCAR-8, 7.4 µM (inactive); with NCI-H226 it was > 10 µM (inactive); with HCT-15, 0.526 µM; in the assay on A549 it was 3.97 µM (inactive); with CAKI-1, 4.61 µM (inactive).

For the compound `COc1ccc2c(c1)CN1C(=N2)CSC1c1ccccc1Cl` (configuration not stated), the GI50 with UO-31 was 11.5 µM (inactive); in the assay on MCF7 it was 25.9 µM (inactive); with SW-620, 17.4 µM (inactive); in the assay with IGROV-1, 14.9 µM (inactive); in the assay on M14, 18.3 µM (inactive); with RXF 393 it was 14.4 µM (inactive). In addition, the GI50 in the assay on SK-OV-3 is 24.3 µM (inactive); in the assay on TK-10, 23.7 µM (inactive); with Hs-578T, 27.9 µM (inactive); in the assay on MDA-N, 17.1 µM (inactive); with HOP-62, 31.6 µM (inactive); with OVCAR-8, 16.7 µM (inactive). The GI50 with NCI-H226 was 12.6 µM (inactive); in the assay on HCT-15, 11.7 µM; in the assay with A549 it was 25.7 µM (inactive); in the assay with HOP-92 it was 11.3 µM (inactive); in the assay on CAKI-1, 29.1 µM (inactive).

Turning to `N#CC1C(=O)Nc2sc(C(=O)c3ccc(Br)cc3)c(N)c2C12CCCCC2` (configuration not stated), the GI50 is 16.8 µM (inactive) in the assay on UO-31; 16.5 µM (inactive) in the assay with MCF7; 16.6 µM (inactive) with SW-620; 20.2 µM (inactive) with IGROV-1; 13.3 µM (inactive) in the assay with M14; 7.96 µM (inactive) with RXF 393. The GI50 is 46.3 µM (inactive) in the assay on SK-OV-3; 20.1 µM (inactive) in the assay with A498; 33.2 µM (inactive) in the assay on TK-10; 29 µM (inactive) in the assay on CCRF-CEM; 23.8 µM (inactive) in the assay on DU-145; 17 µM (inactive) in the assay on MDA-N. Also, the GI50 is 38.5 µM (inactive) with HOP-62; 39.8 µM (inactive) in the assay on OVCAR-8; 7.8 µM (inactive) with NCI-H226; 16 µM in the assay with HCT-15; 18.1 µM (inactive) with A549; 27.9 µM (inactive) with CAKI-1.

Take `N#Cc1c(N2CCOCC2)ncn(-c2ccccc2)c1=O`: the GI50 in the assay on UO-31 was 59.4 µM (inactive); in the assay with MCF7 it was > 100 µM (inactive); in the assay on SW-620, > 100 µM (inactive); with IGROV-1, 63.4 µM (inactive); in the assay with M14, > 100 µM (inactive); in the assay on SK-OV-3 it was > 100 µM (inactive). Also, the GI50 with A498, in the assay on CCRF-CEM, in the assay with DU-145, in the assay with MDA-N, in the assay on HOP-62 and with OVCAR-8 was > 100 µM (inactive) each time. Further, the GI50 in the assay with NCI-H226 is > 100 µM (inactive); in the assay with HCT-15 it was more than 100 µM; in the assay on A549, > 100 µM (inactive); in the assay with HOP-92 it was > 100 µM (inactive); with CAKI-1, > 100 µM (inactive).

In the case of `NN/C(=N\S(=O)(=O)c1cc(S(=O)(=O)c2ccccc2)cs1)Nc1ccc(Cl)cc1`, the GI50 was 28.8 µM (inactive) with UO-31; 32.4 µM (inactive) with MCF7; 47.5 µM (inactive) with SW-620; 25.9 µM (inactive) in the assay on IGROV-1; 22 µM (inactive) with M14; 14.9 µM (inactive) with RXF 393. Also, the GI50 in the assay with SK-OV-3 was 43.7 µM (inactive); in the assay with A498 it was 33.8 µM (inactive); in the assay with TK-10 it was 24.8 µM (inactive); in the assay with CCRF-CEM it was 13.5 µM (inactive); in the assay on DU-145 it was 26.1 µM (inactive); with MDA-N, 20.5 µM (inactive). For the same compound, the GI50 in the assay on HOP-62 was 38.4 µM (inactive); with OVCAR-8 it was 32.4 µM (inactive); in the assay with NCI-H226, 33.1 µM (inactive); with HCT-15, 34.3 µM; in the assay on A549, 27.2 µM (inactive); in the assay with HOP-92 it was 33.3 µM (inactive). Moreover, the GI50 in the assay on CAKI-1 is 34.1 µM (inactive).

For `C[C@]12CC[C@H](O)CC1=CC[C@@H]1[C@@H]2CC[C@]2(C)/C(=N/OCCN3CCCC3)CC[C@@H]12`, the GI50 was 16.7 µM (inactive) in the assay on UO-31; 19.1 µM (inactive) in the assay on MCF7; 16.4 µM (inactive) in the assay with SW-620; 16.2 µM (inactive) with IGROV-1; 15.1 µM (inactive) in the assay on RXF 393; 16 µM (inactive) in the assay with A498. Further, the GI50 with TK-10 was 24.1 µM (inactive); with Hs-578T, 22.9 µM (inactive); in the assay with MDA-N it was 17.9 µM (inactive); in the assay on HOP-62, 21.3 µM (inactive); in the assay on OVCAR-8, 16.3 µM (inactive); in the assay on NCI-H226, 14.5 µM (inactive). Also, the GI50 with HCT-15 was 12.1 µM; with CAKI-1 it was 20.9 µM (inactive).

In the case of `Cc1ccc(C(=O)c2[nH]c(Nc3ccc(Cl)cc3)c(C(=S)Nc3ccccc3)c2N)cc1`, the GI50 is 9.14 µM (inactive) with UO-31; 12.5 µM (inactive) in the assay with MCF7; 11.5 µM (inactive) with SW-620; 4.41 µM (inactive) with IGROV-1; 12.9 µM (inactive) in the assay with M14; 4.94 µM (inactive) in the assay on RXF 393. The GI50 with SK-OV-3 was 14.2 µM (inactive); in the assay with A498, 13.6 µM (inactive); with TK-10, 5.36 µM (inactive); with CCRF-CEM, 8.65 µM (inactive); in the assay with DU-145, 8.05 µM (inactive); in the assay on MDA-N it was 6.73 µM (inactive). The GI50 was 4.41 µM (inactive) with HOP-62; 4.68 µM (inactive) in the assay on OVCAR-8; 14 µM (inactive) in the assay on NCI-H226; 10.7 µM in the assay on HCT-15; 2.27 µM (inactive) in the assay with A549; 12.9 µM (inactive) with HOP-92. Moreover, the GI50 in the assay on CAKI-1 was 8.67 µM (inactive).

Take `O=C1CCCCC/C1=C\c1ccccc1`: the GI50 in the assay on UO-31, in the assay with SW-620, in the assay with IGROV-1, in the assay with M14, in the assay on SK-OV-3 and with A498 was > 100 µM (inactive) each time. The GI50 is > 100 µM (inactive) with TK-10; > 100 µM (inactive) with Hs-578T; > 100 µM (inactive) in the assay on DU-145; > 100 µM (inactive) with MDA-N; > 100 µM (inactive) in the assay with HOP-62; 67.1 µM (inactive) in the assay with NCI-H226. The GI50 in the assay on HCT-15 is more than 100 µM; in the assay with A549, > 100 µM (inactive); in the assay with HOP-92 it was > 100 µM (inactive); with CAKI-1, > 100 µM (inactive).
